Measurements taken from ChEMBL document CHEMBL1158812, “Monoterpene lactones from the seeds of Nephelium lappaceum” (2005).

Assays:
Type in all cases: functional
[1] = tested on: Escherichia coli; test: Antibacterial activity against Escherichia coli UPCC 1195 assessed as activity index at 30 ug by agar well method relative to control
[2] = tested on: Bacillus subtilis; test: Antibacterial activity against Bacillus subtilis UPCC 1295 at 30 ug by agar well method; details: read-out: IZ
[3] = tested on: Bacillus subtilis; test: Antibacterial activity against Bacillus subtilis UPCC 1295 assessed as activity index at 30 ug by agar well method relative to control
[4] = tested on: Escherichia coli; test: Antibacterial activity against Escherichia coli UPCC 1195 at 30 ug by agar well method; details: read-out: IZ
[5] = tested on: Pseudomonas aeruginosa; test: Antibacterial activity against Pseudomonas aeruginosa UPCC 1244 assessed as activity index at 30 ug by agar well method relative to control
[6] = tested on: Staphylococcus aureus; test: Antibacterial activity against Staphylococcus aureus UPCC 1143 assessed as activity index at 30 ug by agar well method relative to control
[7] = tested on: Staphylococcus aureus; test: Antibacterial activity against Staphylococcus aureus UPCC 1143 at 30 ug by agar well method; details: read-out: IZ
[8] = tested on: Pseudomonas aeruginosa; test: Antibacterial activity against Pseudomonas aeruginosa UPCC 1244 at 30 ug by agar well method; details: read-out: IZ
[9] = tested on: Aspergillus niger; test: Antimicrobial activity against Aspergillus niger UPCC 4219 assessed as activity index at 30 ug by agar well method relative to control
[10] = tested on: Trichophyton mentagrophytes; test: Antimicrobial activity against Trichophyton mentagrophytes UPCC 4193 at 30 ug by agar well method; details: read-out: IZ
[11] = tested on: Candida albicans; test: Antimicrobial activity against Candida albicans UPCC 2168 assessed as activity index at 30 ug by agar well method relative to control
[12] = tested on: Candida albicans; test: Antimicrobial activity against Candida albicans UPCC 2168 at 30 ug by agar well method; details: read-out: IZ
[13] = tested on: Trichophyton mentagrophytes; test: Antimicrobial activity against Trichophyton mentagrophytes UPCC 4193 assessed as activity index at 30 ug by agar well method relative to control
[14] = tested on: Aspergillus niger; test: Antimicrobial activity against Aspergillus niger UPCC 4219 at 30 ug by agar well method; details: read-out: IZ

Row | SMILES | Activity_index [1] | zone of inhibition at 30 µg/disc [2] | Activity_index [3] | zone of inhibition at 30 µg/disc [4] | Activity_index [5] | Activity_index [6] | zone of inhibition at 30 µg/disc [7] | zone of inhibition at 30 µg/disc [8] | Activity_index [9] | zone of inhibition at 30 µg/disc [10] | Activity_index [11] | zone of inhibition at 30 µg/disc [12] | Activity_index [13] | zone of inhibition at 30 µg/disc [14]
1 | O=C(N[C@H](CO)[C@H](O)c1ccc([N+](=O)[O-])cc1)C(Cl)Cl [CHLORAMPHENICOL] | 2.8 | 20 mm | 2.3 | 23 mm | 1.3 | 3.2 | 25 mm | 14 mm |  |  |  |  |  | 
2 | O=C1C[C@@]2(CO1)CO[C@@]1(CO)CC(=O)O[C@@H]21 [LAPPACEOLIDE A] | 0.1 |  | 0 | 11 mm | 0.2 | 0.1 | 11 mm | 12 mm | 0.2 | 14 mm | 0.3 | 13 mm | 0.4 | 12 mm
3 | O=C1C[C@]2(CO1)CO[C@@]1(CO)CC(=O)O[C@@H]21 [LAPPACEOLIDE B] | 0.1 |  | 0 | 11 mm | 0.2 | 0.1 | 11 mm | 12 mm | 0.1 | 13 mm | 0.3 | 13 mm | 0.3 | 11 mm
